Experimental data published in US20180214428A1, “3-(1H-INDOL-2-YL)-1H-PYRAZOLO[3,4-B]PYRIDINES AND THERAPEUTIC USES THEREOF” (Samumed, LLC, priority 2015, published 2018).

Tests used:
[1] = system: Wnt activity (Sp5-Luc reporter gene, SW480 colon carcinoma cells); test: Screening assay for Wnt activity: Sp5-Luc reporter gene assay in SW480 cells; type: cell-based, human; details: for EC50: overnight incubation
Outline: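 SW480 cells stably transduced with a luciferase reporter driven by an Sp5 promoter of eight TCF/LEF sites were plated at 4,000 cells/well in 1% FBS medium. They were exposed overnight at 37° C to a 10-point 1:3 dilution series from 10 μM (0.1% DMSO). Luminescence was normalized to DMSO for four-parameter EC50, or percent inhibition at 10 μM.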

[2] = system: primary human mesenchymal stem cells (hMSCs); test: Induction of chondrogenesis in primary human mesenchymal stem cells; type: cell-based; details: 6 days; for Emax / EC50: Homo sapiens, Mesenchymal stem cells, 144 h; for Emax: read-out: Max. Activity as % TGF-β3 activity; for EC50: concentration required to induce 50% levels of chondrogenesis vs TGF-β3, read-out: Conc (nM) of 50% TGF-β3 activity
Procedure: Representative compounds were screened using primary human mesenchymal stem cells (hMSCs) to determine their ability to induce chondrogenesis (process by which cartilage is developed).
Primary human mesenchymal stem cells (hMSCs) were purchased from Lonza (Walkersville, Md.) and expanded in Mesenchymal Stem Cell Growth Media (Lonza). Cells between passage 3 and 6 were used for the experiments.
Each compound was dissolved in DMSO as a 10 mM stock and used to prepare compound source plates. Serial dilution (1:3, 6-point dose-response curves from 2700 nM to 10 nM) and compound transfer was performed using the ECHO 550 (Labcyte, Sunnyvale, Calif.) into 96-well clear bottom assay plates (Greiner Bio-One) with appropriate DMSO backfill for a final DMSO concentration of 0.03%. hMSCs were plated at 20,000 cells/well in 250 μL/well Incomplete Chondrogenic Induction Medium (Lonza; DMEM, dexamethasone, ascorbate, insulin-transferrin-selenium [ITS supplement], gentamycin-amphotericin [GA-1000], sodium pyruvate, proline and L-glutamine). TGF-β3 (10 ng/mL) was used as a positive control for differentiation while negative control wells were treated with 75 nL DMSO for normalization and calculating EC50 values. Cells were incubated at 37° C. and 5% CO2 for 6 days. To image chondrogenic nodules, the cells were fixed using 4% formaldehyde (Electron Microscopy Sciences), and stained with 2 μg/mL Rhodamine B (Sigma-Aldrich) and 20 μM Nile Red (Sigma-Aldrich) [Johnson K., et. al, A Stem Cell-Based Approach to Cartilage Repair, Science, (2012). 336(6082), 717-721]. The nodules imaged (4 images per well at 4× magnification) by excitation at 531 nm and emission at 625 nm and quantified using the CellInsight CX5 (Thermo Scientific). Number of nodules in each well was normalized to the average of 3 DMSO treated wells on the same plate using Excel (Microsoft Inc.). The normalized averages (fold change over DMSO) of 3 replicate wells for each compound concentration were calculated. Due to solubility limitations of some of the compounds, curve fitting was incomplete leading to inaccurate EC50 determinations.
Using TGF-β3 as a positive control, the concentration of representative compounds required to induce 50% levels of chondrogenesis is reported. In addition, the maximum activity of each compound and the respective dose that each compound reached maximum chondrogenesis activity is reported.

[3] = chondrogenic nodules, TGF-β3 (10 ng/mL) positive control

With `CN(C)CCOc1cncc(-c2cnc3[nH]nc(-c4cc5c(-c6cccnc6)cccc5[nH]4)c3c2)c1` [Compound 565, N,N-Dimethyl-2-((5-(3-(4-(pyridin-3-yl)-1H-indol-2-yl)-1H-pyrazolo[3,4-b]pyridin-5-yl)pyridin-3-yl)oxy)ethan-1-amine] the inhibition at 10 µM ([1]; Homo sapiens, at 10 μM, given for EC50 of >10 μM, read-out: percent inhibition at 10 μM) was 34.5%, the EC50 ([1]; Homo sapiens) was > 10000 nM and the Emax [2, 3] was 46%.

`CN(C)CCNc1cc(F)cc(-c2cccc3[nH]c(-c4n[nH]c5ncc(-c6cncc(NC(=O)C7CCC7)c6)cc45)cc23)c1` [Compound 443, N-(5-(3-(4-(3-((2-(Dimethylamino)ethyl)amino)-5-fluorophenyl)-1H-indol-2-yl)-1H-pyrazolo[3,4-b]pyridin-5-yl)pyridin-3-yl)cyclobutanecarboxamide] gave an EC50 ([1]; Homo sapiens) of 215 nM, an Emax [2, 3] of 78% and an EC50 [2] of 100 nM.

`Fc1ccc(-c2cccc3[nH]c(-c4n[nH]c5ncc(-c6cncnc6)cc45)cc23)cc1` [Compound 47, 3-(4-(4-Fluorophenyl)-1H-indol-2-yl)-5-(pyrimidin-5-yl)-1H-pyrazolo[3,4-b]pyridine] was tested, and the EC50 ([1]; Homo sapiens) was 2740 nM, the Emax [2, 3] was 135% and the EC50 [2] was 10 nM.

For `Fc1ccc(-c2cccc3[nH]c(-c4n[nH]c5ncc(-c6cncc(CN7CCCCC7)c6)cc45)cc23)cc1` [Compound 36, 3-(4-(4-Fluorophenyl)-1H-indol-2-yl)-5-(5-(piperidin-1-ylmethyl)pyridin-3-yl)-1H-pyrazolo[3,4-b]pyridine], the EC50 ([1]; Homo sapiens) was 3660 nM, the Emax [2, 3] was 67% and the EC50 [2] was 10 nM.

With `CN1CCN(c2cccc3[nH]c(-c4n[nH]c5ncc(-c6cncc(CN7CCCCC7)c6)cc45)cc23)CC1` [Compound 215, 3-(4-(4-Methylpiperazin-1-yl)-1H-indol-2-yl)-5-(5-(piperidin-1-ylmethyl)pyridin-3-yl)-1H-pyrazolo[3,4-b]pyridine] the EC50 ([1]; Homo sapiens) was 4750 nM, the Emax [2, 3] was 51% and the EC50 [2] was 300 nM.

`FC1(F)CCN(Cc2cncc(-c3cnc4[nH]nc(-c5cc6c(-c7ccoc7)cccc6[nH]5)c4c3)c2)C1` [Compound 308, 5-(5-((3,3-Difluoropyrrolidin-1-yl)methyl)pyridin-3-yl)-3-(4-(furan-3-yl)-1H-indol-2-yl)-1H-pyrazolo[3,4-b]pyridine] was tested, and the EC50 ([1]; Homo sapiens) was 1000 nM, the Emax [2, 3] was 72% and the EC50 [2] was 30 nM.

With `Fc1ccc(-c2cccc3[nH]c(-c4n[nH]c5ncc(-c6cncc(CN7CCCC7)c6)cc45)cc23)cc1` [Compound 35, 3-(4-(4-Fluorophenyl)-1H-indol-2-yl)-5-(5-(pyrrolidin-1-ylmethyl)pyridin-3-yl)-1H-pyrazolo[3,4-b]pyridine] the EC50 ([1]; Homo sapiens) was 2300 nM, the Emax [2, 3] was 160% and the EC50 [2] was 10 nM.

`O=C(Nc1cncc(-c2cnc3[nH]nc(-c4cc5c(-c6ccccn6)cccc5[nH]4)c3c2)c1)c1ccccc1` [Compound 128, N-(5-(3-(4-(Pyridin-2-yl)-1H-indol-2-yl)-1H-pyrazolo[3,4-b]pyridin-5-yl)pyridin-3-yl)benzamide] gave an EC50 ([1]; Homo sapiens) of 390 nM, an Emax [2, 3] of 565% and an EC50 [2] of 300 nM.

For `FC1(F)CCN(Cc2cncc(-c3cnc4[nH]nc(-c5cc6c(-c7ccncc7)cccc6[nH]5)c4c3)c2)C1` [Compound 118, 5-(5-((3,3-Difluoropyrrolidin-1-yl)methyl)pyridin-3-yl)-3-(4-(pyridin-4-yl)-1H-indol-2-yl)-1H-pyrazolo[3,4-b]pyridine], the EC50 ([1]; Homo sapiens) was 708 nM and the Emax [2, 3] was 29%.

In the case of `CN(C)CCNc1cc(F)cc(-c2cccc3[nH]c(-c4n[nH]c5ncc(-c6cncc(OC7CCCCC7)c6)cc45)cc23)c1` [Compound 785, N^1-(3-(2-(5-(5-(Cyclohexyloxy)pyridin-3-yl)-1H-pyrazolo[3,4-b]pyridin-3-yl)-1H-indol-4-yl)-5-fluorophenyl)-N^2,N^2-dimethylethane-1,2-diamine], the EC50 ([1]; Homo sapiens) is reported as 2950 nM, the Emax [2, 3] is reported as 147% and the EC50 [2] is reported as 30 nM.

For `c1ccc2[nH]c(-c3n[nH]c4ncc(-c5cncc(CN6CCCC6)c5)cc34)cc2c1` [Compound 240, 3-(1H-Indol-2-yl)-5-(5-(pyrrolidin-1-ylmethyl)pyridin-3-yl)-1H-pyrazolo[3,4-b]pyridine], the EC50 ([1]; Homo sapiens) was 1410 nM, the Emax [2, 3] was 98% and the EC50 [2] was 10 nM.

Work on `CC(C)(C)C(=O)Nc1cncc(-c2cnc3[nH]nc(-c4cc5c(-c6cccnc6)cccc5[nH]4)c3c2)c1` [Compound 78, N-(5-(3-(4-(Pyridin-3-yl)-1H-indol-2-yl)-1H-pyrazolo[3,4-b]pyridin-5-yl)pyridin-3-yl)pivalamide] yielded an EC50 ([1]; Homo sapiens) of 634 nM, an Emax [2, 3] of 232% and an EC50 [2] of 300 nM.

For `CN(C)CCNc1cc(F)cc(-c2cccc3[nH]c(-c4n[nH]c5ncc(-c6cncnc6)cc45)cc23)c1` [Compound 449, N^1-(3-Fluoro-5-(2-(5-(pyrimidin-5-yl)-1H-pyrazolo[3,4-b]pyridin-3-yl)-1H-indol-4-yl)phenyl)-N^2,N^2-dimethylethane-1,2-diamine], the EC50 ([1]; Homo sapiens) was 2600 nM and the Emax [2, 3] was 17%.

For `CN(C)CCNc1cc(F)cc(-c2cccc3[nH]c(-c4n[nH]c5ncc(-c6ccncc6)cc45)cc23)c1` [Compound 440], the EC50 [1] was 6070 nM, the “Max. Activity as % TGF-β3 activity” value [2, 3] was 31% and the “Conc (nM) of Max. activity” value ([2]; chondrogenic nodules, dose at which maximum chondrogenesis activity was reached) was 2700 nM.

`Nc1cncc(-c2cnc3[nH]nc(-c4cc5c(-c6ccccc6F)cccc5[nH]4)c3c2)c1` [Compound 49, 5-(3-(4-(2-Fluorophenyl)-1H-indol-2-yl)-1H-pyrazolo[3,4-b]pyridin-5-yl) pyridin-3-amine] showed an EC50 ([1]; Homo sapiens) of 99 nM and an Emax [2, 3] of 134%.

`CN(C)Cc1cncc(-c2cnc3[nH]nc(-c4cc5c(-c6cc(F)cc(CNS(C)(=O)=O)c6)cccc5[nH]4)c3c2)c1` [Compound 463, N-(3-(2-(5-(5-((Dimethylamino)methyl)pyridin-3-yl)-1H-pyrazolo[3,4-b]pyridin-3-yl)-1H-indol-4-yl)-5-fluorobenzyl)methane sulfonamide] gave an EC50 ([1]; Homo sapiens) of 489 nM, an Emax [2, 3] of 65% and an EC50 [2] of 100 nM.

For `CN1CCN(c2cccc3[nH]c(-c4n[nH]c5ncc(-c6cncc(NC(=O)C7CCCC7)c6)cc45)cc23)CC1` [Compound 222, N-(5-(3-(4-(4-Methylpiperazin-1-yl)-1H-indol-2-yl)-1H-pyrazolo[3,4-b]pyridin-5-yl)pyridin-3-yl)cyclopentanecarboxamide], the EC50 ([1]; Homo sapiens) was 1040 nM, the Emax [2, 3] was 408% and the EC50 [2] was 100 nM.
